Data from US20120220528A1, “SYSTEMS AND METHODS FOR THERAPY OF KIDNEY DISEASE AND/OR HEART FAILURE USING CHIMERIC NATRIURETIC PEPTIDES” (MEDTRONIC, INC., priority 2011, published 2012).
“Also recorded” adds a separate entry of the source. Bridges are numbered along the chain shown (N, C = ends). Where no end group is shown, it is not given here.

What was measured:
[1] = tested on: Human renal medullary epithelial cells; assay: In vitro cell-based assay of cGMP production; settings: 9000, 3000, 300, 30, 10 and 0 nM, 15 minutes, ELISA
[2] = tested on: healthy canines; assay: Healthy canines: diuresis and natriuresis after subcutaneous bolus; format: in vivo, canine; settings: SQ bolus, BNP 25 μg/kg
[3] = tested on: healthy canines; assay: Healthy canines: diuresis and natriuresis with IV infusion; format: in vivo, canine; settings: one-hour IV infusion; CD-NP 100 ng/kg·min, BNP 30 ng/kg·min

Substance | stimulation of cGMP production [1] | sodium excretion (natriuresis) following subcutaneous bolus ([2]; CD-NP 27 μg/kg) | urine flow following subcutaneous bolus vs baseline ([2]; CD-NP 27 μg/kg (equimolar)) | sodium excretion [3] | urine flow from baseline [3]
ANP: human atrial natriuretic peptide (Phoenix Pharmaceuticals), control; ligand to the NPR-A receptor (SLRRSSCFGGRMDRIGAQSGLGCNSFRY; disulfide 7-23 (inferred); ends not checked; UniProt P01160 124-151, looked up) | significantly less |  |  |  | 
BNP: commercial preparation of Natrecor; recombinant form of the 32 amino acid human B-type natriuretic peptide, comparative natriuretic peptide |  | increase | increase; also recorded: statistically significant | increasing trend | increasing trend
